Legend:
VERO cells = test: MTT reduction viability assay on VERO cells; type: cell-based; conditions: Chlorocebus sabaeus, 24 hours exposure, mean ± SD
Experimental: (§1) The effect of the drugs on parasite viability was evaluated using the tetrazolium salt (MTT) reduction assay. […] Alternatively, VERO cells attached to the surface of 96-well plates were washed and incubated with MTT (5 mg/mL). After incubation for 4 h at 37°C, the generated formazan crystals were dissolved with 100 μL of 10% (w/v) sodium dodecyl sulfate (SDS) in 0.01 M HCl. The plates were then incubated overnight at 37°C, and the optical density (OD) was determined using a microplate reader (Labsystems Multiskan MS, Finland) at 570 nm. Under these conditions, the OD is directly proportional to the number of viable cells in each well [33, 34]. All of the experiments were performed at least three times. […] The data from each experiment were plotted using the formazan absorbance versus the log of the concentration, and the plot was fitted to the dose-response (four-parameters) equation using the software Graph Pad Prism V5.0, obtaining the EC50 value per drug and per experiment. The data are expressed as the mean ± DS of the EC50s obtained from each experiment.

[1] = test system: T. cruzi trypomastigotes (Y strain); test: MTT reduction viability assay on isolated trypomastigotes; type: cell-based, Trypanosoma cruzi; conditions: for EC50: Trypanosoma cruzi, Y strain, 24 hours exposure, MTT assay, mean ± SD, read-out: EC50 T. cruzi trypomastigote; for Selectivity index (VERO/T. cruzi): ratio of EC50 VERO cells to EC50 T. cruzi trypomastigote
Experimental: as §1, with “Trypomastigotes (Y strain, DTU T. cruzi II) were obtained from infected VERO cells (Chlorocebus sabaeus kidney fibroblasts obtained from ATCC, ATCC number: CCL-81). The cells were exposed to trypomastigotes (Y strain) at a 3:1 density (trypomastigote:cell). The trypomastigotes were allowed to infect the cells for 24 h, and the supernatant was then extracted. The trypomastigotes were released from VERO cells at 4 days after infection. The parasites were harvested and collected for viability assays. The effect” for “The effect”

[2] = test system: T. cruzi in infected RAW 264.7 cells; test: Parasite DNA load by real-time PCR in infected RAW cells; type: cell-based, Trypanosoma cruzi; conditions: for parasite's DNA load: 1 μM, qPCR, 48 hours; for parasite load (qPCR): infected RAW cells, 48 hours after treatment, Fig 4
From the text: DNA from infected RAW cells (murine macrophages, ATCC number: TIB-71) was isolated using Wizard Genomic DNA Purification Kit (Promega, USA) following the manufacturer’s instructions. DNA was quantified through […] absorbance measurements using a Varioskan spectrophotometer (Thermo Scientific, USA). To evaluate the parasite DNA load, we used a TaqMan-Duplex system, as described previously. To amplify an 84-bp T. cruzi satellite DNA sequence, we used the following primers: TcSt 4-Fw (5’-[…]-3’) and TcSt 1-Rev (5’-[…]-3’) and the TcSt-1 probe (5’-FAM-[…]-BHQ-1-3’). As an endogenous control, we used the Mus-F (5’-[…]-3’) and Mus-R (5’-[…]-3’) primers coupled with the MM-1 probe (5’-HEX-AAAGCATCTGCCTCCG-BHQ-1-3’) to amplify a 67-bp Mus musculus GAPDH sequence. The primers and probes were designed using Primer Express 3.0 Software (Applied Biosystems, USA) and manufactured by Integrated DNA Technologies (Coralville, IA, USA). The PCR reactions were performed using an ABI7300 real-time thermocycler (Applied Biosystems, USA). […] ROX was used as a reference dye. For both TaqMan assays, the thermal cycle consisted of a polymerase activation step carried out at 95°C for 10 min (one cycle) and a two-step amplification phase: 95°C for 15 s and 55°C for 45 s (40 cycles). Fluorescence was measured at the end of each amplification cycle. The data were analyzed using 7300 System SDS software with the SDS relative quantitation plug-in (Applied Biosystems, USA). All of the data were analyzed by the 2^-∆∆CT method, comparing the CTs of the T. cruzi gene versus that of GAPDH as well as comparing all of the samples with the controls. The parasite load is expressed as the relative DNA load compared with the controls.

[3] = test system: T. cruzi trypomastigotes (Y strain); type: cell-based; conditions: for markers of cell death (phosphatidylserine exposure and propidium iodide permeabilization): 1 μM, 24 hours; for number of viable cells (without annexin-V or PI positivity): 24 hours, 0.1, 0.5 or 1 μM, Fig 2B
Experimental: For these assays, 10^7 trypomastigotes (Y strain) were exposed to […] for 24 h in RPMI at 37°C and 5% CO2. The cells were then washed in phosphate-buffered saline (PBS), resuspended, and incubated with propidium iodide (PI) and Annexin-V labeled with Alexa Fluor 488. The incubation was performed using Alexa Fluor 488 Annexin V/Dead Cell Apoptosis Kit (Molecular Probes, USA) following the manufacturer’s instructions. The fluorescence of the samples was measured using a FACSAria-III flow cytometer (BD biosciences, USA) with 530/30 and 630/22 filters to detect Annexin-V and PI, respectively. For each sample, 5,000 events were recorded, and the data were analyzed using FACSDiva 6.1 software.

Structure (SMILES)	EC50 (VERO cells) [µM]	EC50 [1] [µM]	Selectivity index (VERO/T. cruzi) [1]	parasite's DNA load [2]	parasite load (qPCR) [2]	markers of cell death (phosphatidylserine exposure and propidium iodide permeabilization) [3]	number of viable cells (without annexin-V or PI positivity) [3]
O=C(OCCCCCCCCCC[P+](c1ccccc1)(c1ccccc1)c1ccccc1)c1cc(O)c(O)c(O)c1.[Br-] [TPP^+-C10, triphenyl(10-((3,4,5-trihydroxybenzoyl)oxy)-decyl) phosphonium bromide]	11.3 ± 0.1	1 ± 0.6	11.3	10 % of control measurements	reduced the parasite load in a concentration-dependent manner	induced markers of cell death	significant decrease in the number of viable cells at concentrations of 0.5 and 1 μM
O=C(OCCCCCCCCCCCC[P+](c1ccccc1)(c1ccccc1)c1ccccc1)c1cc(O)c(O)c(O)c1.[Br-] [TPP^+-C12, triphenyl(12-((3,4,5-trihydroxybenzoyl)oxy)-dodecyl) phosphonium bromide]	10.9 ± 2.4	1 ± 0.7	10.9	13 % of control measurements	reduced the parasite load in a concentration-dependent manner	induced markers of cell death	significant decrease in the number of viable cells at concentrations of 0.5 and 1 μM

Source: article PMC4552745, “Novel Gallate Triphenylphosphonium Derivatives with Potent Antichagasic Activity” (PLoS ONE, 2015)
